Experimental data: PMC11509018, “Evaluation of the Role of Tanshinone I in an In Vitro System of Charcot-Marie-Tooth Disease Type 2N” (International Journal of Molecular Sciences, 2024)

Biological target: T1, AlaRS R326W binding to Nrp1 (Homo sapiens, UniProt P49588, R326W)
T1 construct: expressed in transfected cells
T1 sequence (P49588 1-968 R326W): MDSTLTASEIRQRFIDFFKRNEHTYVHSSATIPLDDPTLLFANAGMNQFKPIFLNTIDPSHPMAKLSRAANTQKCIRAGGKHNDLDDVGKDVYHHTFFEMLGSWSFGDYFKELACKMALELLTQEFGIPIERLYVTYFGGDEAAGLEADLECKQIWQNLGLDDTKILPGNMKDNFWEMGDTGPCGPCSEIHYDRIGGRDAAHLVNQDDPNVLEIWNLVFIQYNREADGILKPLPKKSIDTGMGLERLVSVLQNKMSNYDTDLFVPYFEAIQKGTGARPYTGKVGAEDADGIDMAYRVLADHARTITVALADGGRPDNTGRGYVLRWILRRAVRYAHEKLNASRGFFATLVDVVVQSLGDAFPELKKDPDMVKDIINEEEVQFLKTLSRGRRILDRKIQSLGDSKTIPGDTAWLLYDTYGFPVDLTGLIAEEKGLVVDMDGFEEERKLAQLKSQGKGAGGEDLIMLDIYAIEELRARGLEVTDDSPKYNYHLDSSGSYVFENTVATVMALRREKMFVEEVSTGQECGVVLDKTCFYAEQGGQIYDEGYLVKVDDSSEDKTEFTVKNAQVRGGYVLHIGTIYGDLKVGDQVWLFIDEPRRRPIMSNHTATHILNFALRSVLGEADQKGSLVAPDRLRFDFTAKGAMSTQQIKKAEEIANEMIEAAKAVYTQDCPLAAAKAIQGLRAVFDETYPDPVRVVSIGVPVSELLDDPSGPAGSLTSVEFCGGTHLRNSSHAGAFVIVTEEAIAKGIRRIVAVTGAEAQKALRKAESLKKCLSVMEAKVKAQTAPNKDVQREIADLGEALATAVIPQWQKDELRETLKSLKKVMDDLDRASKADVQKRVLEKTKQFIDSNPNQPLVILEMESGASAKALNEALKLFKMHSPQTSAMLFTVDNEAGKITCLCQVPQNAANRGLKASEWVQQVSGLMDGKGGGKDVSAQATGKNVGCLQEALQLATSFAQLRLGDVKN
Test: Co-IP of HA-AlaRS mutant with Nrp1 in transfected cells
Assay type: cell-based
Conditions: 20 µM Tanshinone I for 24 h, ImageJ, average of three repeats
Method: To further investigate whether Tanshinone I-induced conformational changes in AlaRS CMT mutants affect their interaction with Nrp1, Co-IP experiments were performed in cells treated with Tanshinone I. By comparing Co-IP results obtained before and after treatment, we assessed the influence of the drug on the binding strength and mode between the AlaRS CMT mutants and Nrp1. […] To confirm the direct effect of Tanshinone I on the interaction between AlaRS CMT mutants and Nrp1, pull-down experiments were performed. […] Given that the interaction between AlaRS mutants and Nrp1 is associated with disease progression in CMT, the ability of Tanshinone I to disrupt this binding highlights its potential to intervene in the pathogenic mechanisms of these diseases.
Figure 7 The impact of Tanshinone I on the interaction between AlaRS mutants and Nrp1. (A) Co-IP assays were conducted to assess the binding between HA-AlaRS mutants and Nrp1, both with and without treatment with 20 µM Tanshinone I for 24 h. […] (C) Pull down assay was performed to detect the binding between AlaRS mutants and GST-Nrp1 b1 with or without 20 µM Tanshinone I. (D) Relative quantification statistics of the AlaRS mutants pulled down from the GST pull down experiments after Tanshinone I treatment were performed using ImageJ. (E) The cell viability of 293T and NSC34 cells treated with different concentrations of Tanshinone I was assessed using the CCK-8 assay over a 24 h period. TEXT PRINTED IN THE PICTURE: (B) Tanshinone I: Mean density band (N71Y): 0.60; Mean density band (G102R): 0.53; Mean density band (R326W): 0.50; Mean density band (R329H): 0.50; Mean density band (E337K): 0.62 | (D) Tanshinone I: Mean density band (N71Y): 0.82; Mean density band (G102R): 0.76; Mean density band (R326W): 0.84; Mean density band (R329H): 0.84; Mean density band (E337K): 0.90
Total protein was extracted from cells using RIPA buffer (50 mM Tris-HCl pH 7.4, 150 mM NaCl, 1% NP40, 1 mM EDTA) supplemented with a protease and phosphatase inhibitor cocktail (Roche, Basel, Switzerland). After SDS-PAGE, the protein on the gel was transferred to a PVDF membrane (Bio-Rad, Hercules, CA, USA) and then blocked with 5% non-fat dry milk in TBST for 1 h. Then, the membranes were incubated with the indicated primary antibodies and corresponding HRP-conjugated secondary antibodies. Signals were detected using the Bio-Rad ChemiDoc system (Bio-Rad, Shanghai, China). The following antibodies were used: Flag (Ray antibody biotech, Beijing, China, 1:3000), HA (Ray antibody biotech, Beijing, China, 1:3000), and GAPDH (Ray antibody biotech, Beijing, China, 1:5000).
To detect the binding of Nrp1 and AlaRS mutants in cells, whole-cell lysates (500 μg) were treated overnight with 2 μg of anti-Flag antibody in RIPA buffer. Next, Protein A/G agarose beads (#sc-2003, Santa Cruz Biotechnology, Santa Cruz, CA, USA) were applied to the lysates and the samples were further treated for 8–12 h with rotation. Samples were washed three times with RIPA buffer. Subsequently, the immunoprecipitations were resuspended into 2 × SDS-loading buffer. The samples were then boiled for 10 min and detected using Western blot. The experiment was repeated three times.

## Cc1coc2c1C(=O)C(=O)c1c-2ccc2c(C)cccc12 [Tanshinone I]
  Mean density band (R326W), relative quantification of AlaRS mutant immunoprecipitated: 0.50
